According to patent US20120034631A1, “ANTI-LYSOPHOSPHOLIPID ANTIBODY DESIGN USING ANTIBODY STRUCTURES” (priority 2010, published 2012):
Marks after values point to notes of the source that are not given here.

Columns and labels:
[1] = test system: CXCL8/IL-8 release, SKOV3 ovarian cells; test: LPA-induced IL-8 release in SKOV3 cells; format: cell-based, human; conditions: 1 uM LPA alone (stimulus)
Procedure: (§1) Anti-LPA antibodies inhibit the LPA-dependant release of human CXCL8/IL-8 in conditioned media of SKOV3 ovarian cells. SKOV3 cells (Lot No 4255558, passage 14) were harvested with 2 ml of 1× Trypsin EDTA (Mediatech Inc, Cat. No 25-053-CV) and resuspended in 8 ml of complete medium (10% FBS, Mediatech Inc. Cat. no 35-011-CV). The cells were centrifuged for 5 min ([…]) and re-suspended in 5 ml of complete medium. Cells were counted in duplicate with 0.4% Trypan blue (10 ul cells plus 90 ul Trypan blue, Invitrogen, Cat. No 15250-061) using a hemocytometer. In a 96-well plate, 1×10^5 cells per well were seeded (final volume 100 ul/well). The cells were allowed to attach and form a confluent monolayer by incubating overnight at 37° C. On the following day, cells were gently washed two times with minimum media (1 mg/ml BSA in McCoy's medium with L-glutamine, Mediatech, Cat. No 10-050-CV). […] The CXCL8/IL-8 levels in each supernatant were measured using the Quantikine human CXCL8/IL-8 ELISA kit according to vendor instructions (R&D Systems, Minneapolis Minn., Cat. No D8000C). The IL-6 levels were measured by ELISA using the Quantikine human IL-6 immunoassay kit (R&D systems, Cat. No. D6050). Data were analyzed by one-way ANOVA followed by Bonferroni's post test and expressed as human IL-8 or human IL-6 fold increase.

SKOV3 cells = test: Tumor cell migration in the scratch assay; format: cell-based; conditions: 17 hr
Procedure: SKOV3 cells were plated at 15,000 cells per well in a 96-well plate. The following day the cells were serum starved in minimal media (McCoy's Media 5a, adjusted to contain L-Glutamine, 2.2 g/L Sodium Bicarbonate, 1% penicillin/streptomycin and 1 mg/ml BSA) for 24 hrs. At time 0 cells were scratched with a p200 pipet tip down the center of each well, washed with minimal media and pictures were taken prior to treatment. Cells were then treated with LPA (C18:1) at 0.2 uM, 1.0 uM and 10 uM concentrations which were pre-incubated at 37° C. with […] in the presence or absence of antibody at 150 ug/ml. Positive control (10% FBS treated cells) and antibody alone added to 1 uM LPA, were also tested. Cells were stimulated for 17 hrs at 37° C. in a 5% CO2 incubator. Pictures were taken again 17 hr post-treatment and % wound closure was measured by adjusting pictures to the same size and measuring the width of the scratch at time 0 and time 17 hr with a ruler. Data were analyzed by Student's t-test.

[2] = test system: IL-6 release, SKOV3 ovarian cells; test: LPA-induced IL-6 release in SKOV3 cells; format: cell-based, human; conditions: 1 uM LPA alone (stimulus)
Procedure: as §1

ovarian tumor SKOV3 = test: SKOV3 ovarian tumor progression and cytokines in nude mice; format: in vivo
Procedure: Human mAb LT3015 reduced ovarian tumor SKOV3 progression and circulating cytokines in biological fluids. Nude mice were engrafted with either 10 mg/kg LT3015, vehicle, or 2 mg/kg paclitaxel (Taxol). After 56 days, mice were sacrificed and the peritoneal cavities were analyzed for tumor burden and ascites fluid accumulation. Tumors were harvested and final tumor weights were determined along with ascites volumes. Data were analyzed by ANOVA and student's t-test analysis. […] Serum and ascites levels of IL-6, IL-8, GM-CSF and VEGF were measured using ELISA kits from R&D systems, Minneapolis Minn.

Compound | Human IL-8 Fold Increase (approx). [1] | Percent wound closure (approx.) (SKOV3 cells; 0.2 uM LPA) [%] | Percent wound closure (approx.) (SKOV3 cells; 1.0 uM LPA) [%] | Percent wound closure (approx.) (SKOV3 cells; 10 uM LPA) [%] | Human IL-6 Fold Increase (approx). [2] | Tumor Burden (ovarian tumor SKOV3; 56 days, LT3015 10 mg/kg, Taxol 2 mg/kg, mean ± S.E., vehicle 1274 ± 209) [mg] | % Reduction (tumor burden) (ovarian tumor SKOV3; 56 days, LT3015 10 mg/kg, Taxol 2 mg/kg, versus vehicle) [%] | GM-CSF-ascites (ovarian tumor SKOV3; LT3015 10 mg/kg (N = 4), Taxol 2 mg/kg (N = 1), vehicle 1200 ± 248.2) [pg/mL] | IL-8-ascites (ovarian tumor SKOV3; LT3015 10 mg/kg (N = 4), Taxol 2 mg/kg (N = 1), vehicle 2097 ± 132.1) [pg/mL] | VEGF-ascites (ovarian tumor SKOV3; LT3015 10 mg/kg (N = 4), Taxol 2 mg/kg (N = 1), vehicle 3341 ± 202.5) [pg/mL] | Ascites volume (ovarian tumor SKOV3; LT3015 10 mg/kg, Taxol 2 mg/kg, vehicle 3.563 ± 1.144) [mL] | IL-6-serum (ovarian tumor SKOV3; LT3015 10 mg/kg, Taxol 2 mg/kg, vehicle 84.56 ± 16.62) [pg/mL] | GM-CSF-serum (ovarian tumor SKOV3; LT3015 10 mg/kg, Taxol 2 mg/kg, vehicle 320.5 ± 43.18) [pg/mL] | IL-8-serum (ovarian tumor SKOV3; LT3015 10 mg/kg, Taxol 2 mg/kg, vehicle 687.6 ± 114.1) [pg/mL] | Ascites presence (ovarian tumor SKOV3; animals with ascites / animals, LT3015 10 mg/kg, Taxol 2 mg/kg, vehicle 6/11)
Lysophosphatidic acid [LPA] | ~7.1## fold | ~65 | ~81 | ~89 | ~29## fold | – | – | – | – | – | – | – | – | – | –
CC(=O)O[C@H]1C(=O)[C@@]2(C)[C@H]([C@H](OC(=O)c3ccccc3)[C@]3(O)C[C@H](OC(=O)[C@H](O)[C@@H](NC(=O)c4ccccc4)c4ccccc4)C(C)=C1C3(C)C)[C@]1(OC(C)=O)CO[C@@H]1C[C@@H]2O [Taxol, paclitaxel] | – | – | – | – | – | 381 ± 73 | 70.1 | 2054 ± 0 | 2187 ± 0 | 3344 ± 0 | 0.2 ± 0.0 | 29.19 ± 9.568 | 340.2 ± 62.98 | 234.7 ± 83.04 | 1/7
